# Patent US20170252298A1, “Performance-Enhancing Nasal Irrigation” (Backed-by-Science, Inc., priority 2014, published 2017)
# System: nasal cilia
# Experiment: nasal ciliary beat frequency (CBF), whole field analysis over time
# Format: cell-based
# Design: Mean CBF (WFA): unit: Hz
# Procedure: The ATP concentration inside the cell is typically 1-10 millimolar (mM). We started with an ATP concentration of 1 mg/ml based on literature data and from testing done by Dr. James Palmer at University of Pennsylvania on ATP concentration for increasing nasal ciliary beat frequency. […] 1 mg/ml from the below charts=1 mg/ml=1 gram per liter=1/507 g/mol=2 mM. Most intracellular ATP concentrations in animals fall within the range of 0.5-10 mM. [table]
# [1] = Plate 2, elapsed 0:08:10, ATP 1 mg/ml
# [2] = Plate 2, elapsed 0:08:20, ATP 1 mg/ml
# [3] = Plate 2, elapsed 0:08:30, ATP 1 mg/ml
# [4] = Plate 2, elapsed 0:08:40, ATP 1 mg/ml
# [5] = Plate 2, elapsed 0:08:50, ATP 1 mg/ml
# [6] = Plate 2, elapsed 0:09:00, ATP 1 mg/ml
# [7] = Plate 2, elapsed 0:09:10, ATP 1 mg/ml
# [8] = Plate 2, elapsed 0:09:20, ATP 1 mg/ml
# [9] = Plate 2, elapsed 0:09:30, ATP 1 mg/ml
# [10] = Plate 2, elapsed 0:09:40, ATP 1 mg/ml
# [11] = Plate 2, elapsed 0:09:50, ATP 1 mg/ml
# [12] = Plate 2, elapsed 0:10:00, ATP 1 mg/ml
# [13] = Plate 2, elapsed 0:10:10, ATP 1 mg/ml
# [14] = Plate 2, elapsed 0:10:20, ATP 1 mg/ml
# [15] = Plate 2, elapsed 0:10:30, ATP 1 mg/ml
# [16] = Plate 2, elapsed 0:10:40, ATP 1 mg/ml
# [17] = Plate 2, elapsed 0:10:50, ATP 1 mg/ml
# [18] = Plate 2, elapsed 0:11:00, ATP 1 mg/ml
# [19] = Plate 2, elapsed 0:11:10, ATP 1 mg/ml
# [20] = Plate 2, elapsed 0:15:10, ATP 1 mg/ml
# [21] = Plate 2, elapsed 0:15:20, ATP 1 mg/ml
# [22] = Plate 2, elapsed 0:15:30, ATP 1 mg/ml
# [23] = Plate 2, elapsed 0:15:40, ATP 1 mg/ml
# [24] = Plate 2, elapsed 0:15:50, ATP 1 mg/ml
# [25] = Plate 2, elapsed 0:16:00, ATP 1 mg/ml
# [26] = Plate 2, elapsed 0:16:10, ATP 1 mg/ml
# [27] = Plate 2, elapsed 0:16:20, ATP 1 mg/ml
# [28] = Plate 2, elapsed 0:16:30, ATP 1 mg/ml
# [29] = Plate 2, elapsed 0:16:40, ATP 1 mg/ml
# [30] = Plate 2, elapsed 0:16:50, ATP 1 mg/ml
# [31] = Plate 2, elapsed 0:17:00, ATP 1 mg/ml
# [32] = Plate 2, elapsed 0:17:10, ATP 1 mg/ml
# [33] = Plate 2, elapsed 0:17:20, ATP 1 mg/ml
# [34] = Plate 2, elapsed 0:17:30, ATP 1 mg/ml
# [35] = Plate 2, elapsed 0:17:40, ATP 1 mg/ml
# [36] = Plate 2, elapsed 0:17:50, ATP 1 mg/ml
# [37] = Plate 2, elapsed 0:18:00, ATP 1 mg/ml
# [38] = Plate 2, elapsed 0:18:10, ATP 1 mg/ml
# [39] = Plate 2, elapsed 0:18:20, ATP 1 mg/ml
# [40] = Plate 2, elapsed 0:18:30, ATP 1 mg/ml
# [41] = Plate 2, elapsed 0:18:40, ATP 1 mg/ml
# [42] = Plate 2, elapsed 0:18:50, ATP 1 mg/ml
# [43] = Plate 2, elapsed 0:19:00, ATP 1 mg/ml
# [44] = Plate 2, elapsed 0:19:10, ATP 1 mg/ml
# [45] = Plate 2, elapsed 0:19:20, ATP 1 mg/ml
# [46] = Plate 2, elapsed 0:19:30, ATP 1 mg/ml
# [47] = Plate 2, elapsed 0:19:40, ATP 1 mg/ml
# [48] = Plate 2, elapsed 0:19:50, ATP 1 mg/ml
# [49] = Plate 2, elapsed 0:20:00, ATP 1 mg/ml
compound,measurement,setting,value
"Nc1ncnc2c1ncn2[C@@H]1O[C@H](COP(=O)(O)OP(=O)(O)OP(=O)(O)O)[C@@H](O)[C@H]1O [ATP, adenosine triphosphate]",Active Area,[1],37.97%
same,Mean CBF (WFA),[1],8.3
same,Active Area,[2],38.66%
same,Mean CBF (WFA),[2],8.29
same,Active Area,[3],39%
same,Mean CBF (WFA),[3],8.27
same,Active Area,[4],36.32%
same,Mean CBF (WFA),[4],8.33
same,Active Area,[5],39.05%
same,Mean CBF (WFA),[5],8.36
same,Active Area,[6],37.12%
same,Mean CBF (WFA),[6],8.36
same,Active Area,[7],38.83%
same,Mean CBF (WFA),[7],8.31
same,Active Area,[8],38.39%
same,Mean CBF (WFA),[8],8.31
same,Active Area,[9],37.54%
same,Mean CBF (WFA),[9],8.37
same,Active Area,[10],36.11%
same,Mean CBF (WFA),[10],8.42
same,Active Area,[11],35.79%
same,Mean CBF (WFA),[11],8.4
same,Active Area,[12],36.58%
same,Mean CBF (WFA),[12],8.44
same,Active Area,[13],36.77%
same,Mean CBF (WFA),[13],8.49
same,Active Area,[14],37.58%
same,Mean CBF (WFA),[14],8.39
same,Active Area,[15],37.33%
same,Mean CBF (WFA),[15],8.41
same,Active Area,[16],37.82%
same,Mean CBF (WFA),[16],8.41
same,Active Area,[17],35.58%
same,Mean CBF (WFA),[17],8.37
same,Active Area,[18],38.06%
same,Mean CBF (WFA),[18],8.43
same,Active Area,[19],38.67%
same,Mean CBF (WFA),[19],8.42
same,Active Area,[20],41.31%
same,Mean CBF (WFA),[20],8.44
same,Active Area,[21],41.96%
same,Mean CBF (WFA),[21],8.48
same,Active Area,[22],39.32%
same,Mean CBF (WFA),[22],8.43
same,Active Area,[23],39.9%
same,Mean CBF (WFA),[23],8.44
same,Active Area,[24],40.84%
same,Mean CBF (WFA),[24],8.41
same,Active Area,[25],41.99%
same,Mean CBF (WFA),[25],8.36
same,Active Area,[26],42.7%
same,Mean CBF (WFA),[26],8.37
same,Active Area,[27],43.14%
same,Mean CBF (WFA),[27],8.39
same,Active Area,[28],42.52%
same,Mean CBF (WFA),[28],8.36
same,Active Area,[29],42.09%
same,Mean CBF (WFA),[29],8.38
same,Active Area,[30],42.85%
same,Mean CBF (WFA),[30],8.33
same,Active Area,[31],38.98%
same,Mean CBF (WFA),[31],8.32
same,Active Area,[32],41.85%
same,Mean CBF (WFA),[32],8.27
same,Active Area,[33],41.7%
same,Mean CBF (WFA),[33],8.24
same,Active Area,[34],42.78%
same,Mean CBF (WFA),[34],8.29
same,Active Area,[35],40.85%
same,Mean CBF (WFA),[35],8.32
same,Active Area,[36],42.27%
same,Mean CBF (WFA),[36],8.27
same,Active Area,[37],38.92%
same,Mean CBF (WFA),[37],8.27
same,Active Area,[38],40.18%
same,Mean CBF (WFA),[38],8.29
same,Active Area,[39],42.69%
same,Mean CBF (WFA),[39],8.27
same,Active Area,[40],42.91%
same,Mean CBF (WFA),[40],8.27
same,Active Area,[41],41.71%
same,Mean CBF (WFA),[41],8.24
same,Active Area,[42],42.85%
same,Mean CBF (WFA),[42],8.28
same,Active Area,[43],43.3%
same,Mean CBF (WFA),[43],8.24
same,Active Area,[44],42.12%
same,Mean CBF (WFA),[44],8.22
same,Active Area,[45],42.33%
same,Mean CBF (WFA),[45],8.25
same,Active Area,[46],43.77%
same,Mean CBF (WFA),[46],8.23
same,Active Area,[47],44.6%
same,Mean CBF (WFA),[47],8.25
same,Active Area,[48],43.27%
same,Mean CBF (WFA),[48],8.24
same,Active Area,[49],43.87%
same,Mean CBF (WFA),[49],8.26
same,ATP concentration sufficient to give an increase in ciliary beat frequency,"testing by Dr. James Palmer, University of Pennsylvania",1 mg/mL
